From patent EP0053015A1, “1-Phenylthio-2-aminopropane derivatives, their production and use” (Takeda Chemical Industries, Ltd., priority 1980, dated 1982)
Where a name gives a salt, the structure may show the parent alone. Read-outs that look alike come from different tables or passages of the source.

Key:
Assay type in all cases: in vivo
[1] = Suppression of food intake in mice; settings: Mus musculus, male ICR mice, 50 mg/kg oral, given 0.5 hour before feeding, food intake of control animals = 100%, (NS) = not statistically significant
Procedure: Male ICR mice, 7 weeks old, were acclimatised to six-hours-a-day feeding (CE-2 powder, Clea Japan) for 7 days and those animals showing a constant food intake were used in groups of 6 individuals. Each test compound was dissolved in a 5% aqueous solution of gum arabic and orally administered to mice at a dose level of 50 mg/kg as compound (I) at 0.5 hour before feeding on the 8th day. Control animals received a 5% solution of gum arabic only. Each figure in the table is the percent food intake with the food intake of control animals being taken as 100%.
In the table, the figures accompanied by NS in parentheses mean that the difference from control was not statistically significant. All other figures were significant at from P<0.02 to P<0.001.

[2] = Inventors' study of antiobesity, antidiabetic and anorectic effect of prior-art compounds; settings: according to the inventors' study; result in words
From the text: South African Patent No. 67/3108 describes the anti- depressive activity of 1-(4-chlorophenylthio)-2-aminopropane of the formula: [drawing 8] but this patent also says nothing about antiobesity or antidiabetic action. […] In contrast, the compounds of this invention exert strong and long-lasting antiobesity and antidiabetic effects because of their having the particular substituent (halogen) at the particular (para) position of the benzene ring and having the particular secondary amine-type structure.

[3] = Suppression of food intake in rats; settings: male Sprague-Dawley rats fasted for 24 hours, 20 mg/kg by oral gavage, food given after 0.5 hour; control = 100%; ** P<0.01, * P<0.05
Procedure: Male 7-week-old rats of Sprague-Dawley strain were fasted for 24 hours and assigned to groups of 6 animals. A solution of .20 mg/kg of each test compound in distilled water was administered by oral gavage and after 0.5 hour, food (CE-2 powder) was given. The food intake in each group was measured at 1 hour and 2 hours thereafter and the results were compared with the food intake of control animals given distilled water only. The figures in the table denote the food intake percents, with the food intake of control animals being taken as 100%. By the term "gavage" is meant compulsory feeding.

fatty acid synthesis = assay: Inhibition of fatty acid synthesis (glucose-U-14C incorporation into fatty acid fractions); settings: Rattus norvegicus, Sprague-Dawley rats, 20 mg/kg oral, glucose-U-14C 30 minutes later, sacrificed after 60 minutes, versus distilled water control
Procedure: Male 7-week-old Sprague-Dawley rats were acclimatised to 2-hours-a-day feeding (CE-2 powder, Clea Japan) for 10 days and assigned to groups of 5 animals. The animals were orally given 20 mg/kg of l-(4-chlorophenylthio)-2-methylaminopropane fumarate as dissolved in distilled water, and,30 minutes thereafter, glucose-U-^14C (85 pCi/3 g/kg) was orally administered. After 60 minutes, each animal was sacrificed and the radioactivities incorporated into the fatty acid fractions of the liver and the epididymal adipose tissues were determined.

[4] = 1 h, read-out: Food intake (%) 1 hour after administration
[5] = read-out: Food intake (%) 0.5 hour after administration

Row | SMILES | response vs control in vivo at 50 mg/kg [1, 4] [%] | response vs control in vivo at 50 mg/kg [1, 5] [%] | anorectic effect [2] | Food intake (%) 1 hour after administration [3] | Food intake (%) 2 hours after administration [3] | inhibition at 20 mg/kg (fatty acid synthesis; adipose tissues, read-out: relative inhibition rate, radioactivity incorporated into the fatty acid fraction of the epididymal adipose tissues) [%] | inhibition at 20 mg/kg (fatty acid synthesis; liver, read-out: relative inhibition rate, radioactivity incorporated into the fatty acid fraction of the liver) [%]
1 | CC(N)CSc1ccc(Cl)cc1 (centres unmarked) [1-(4-chlorophenylthio)-2-aminopropane, reference compound] | 85.5 | 69.5 | only a weak transient anorectic effect | – | – | – | –
2 | CNC(C)CSc1ccccc1 (centres unmarked) [1-phenylthio-2-methyl-aminopropane, reference compound] | 112 | 106 | – | – | – | – | –
3 | CNC(C)CSc1ccc(Cl)cc1.O=C(O)/C=C/C(=O)O (centres unmarked) [Example 1, 1-(4-chlorophenylthio)-2-methylaminopropane fumarate] | 55.2 | 43.2 | – | 43.9* % | 61.9** % | 58.8 | 46.6
4 | CC(CSc1ccc(Cl)cc1)NCCO (centres unmarked) [Example 4, 1-(4-chlorophenylthio)-2-(2-hydroxyethylamino)propane fumarate] | 67.6 | 65.9 | – | – | – | – | –
5 | CNC(C)CSc1ccc(Cl)c(Cl)c1 (racemic) [Example 7, l-(3,4-dichlorophenylthio)-2-methylamino-propane] | 63.2 | 54.9 | – | – | – | – | –
6 | CN[C@@H](C)CSc1ccc(Cl)cc1 [Example 8, (S)-l-(4-chlorophenylthio)-2-methylaminopropane fumarate] | – | – | – | 38.8** % | 56.1** % | – | –
7 | CNC(C)CSc1ccc(Br)cc1 (centres unmarked) [Example 6, 1-(4-bromophenylthio)-2-methylamino-propane] | 72.1 | 70.8 | – | – | – | – | –
8 | CCNC(C)CSc1ccc(Cl)cc1 (centres unmarked) [Example 3, 1-(4-chlorophenylthio)-2-ethylaminopropane fumarate] | 69.4 | 40.7 | – | – | – | – | –
9 | CNC(C)CSc1ccc(F)cc1 (centres unmarked) [Example 5, 1-(4-fluorophenylthio)-2-methylaminopropane] | 66.5 | 57.9 | – | – | – | – | –
